Here are results for 10 molecules from US12084472B2 (Ardelyx, Inc., priority 2015, dated 2024).

Each structure is given as a SMILES string. Counter-ions that a name gives are not always drawn.

This test concerns the target T1, human TGR5 (Homo sapiens, UniProt Q8TDU6).
T1 construct: expressed in transfected cells; host or cells: HEK293
T1 sequence (Q8TDU6 1-330): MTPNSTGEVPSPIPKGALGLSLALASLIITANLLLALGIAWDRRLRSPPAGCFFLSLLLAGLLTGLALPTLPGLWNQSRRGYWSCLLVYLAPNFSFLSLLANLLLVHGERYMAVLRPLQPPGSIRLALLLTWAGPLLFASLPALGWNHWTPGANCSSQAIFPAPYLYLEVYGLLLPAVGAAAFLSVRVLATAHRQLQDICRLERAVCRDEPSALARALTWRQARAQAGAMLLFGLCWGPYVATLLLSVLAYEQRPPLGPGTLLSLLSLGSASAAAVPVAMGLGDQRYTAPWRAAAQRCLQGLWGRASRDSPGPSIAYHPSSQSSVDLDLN
Kind of test: Cell-based TGR5 assay (cAMP generation, HTRF). Conditions: HEK293 cells stably transfected with human TGR5; cAMP by HTRF; 30 minutes at 37° C.; read-out: pEC50 Human TGR5 (converted). The procedure, abridged: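 First, compounds in 3-fold serial dilution were placed in HBSS with 10 mM HEPES pH 7.4 and 0.5 mM IBMX. Next, human TGR5-expressing HEK293 cells were added and incubated 30 min at 37° C. Finally, cAMP was detected by HTRF and pEC50 derived by logistic fitting.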
(TR-FRET usually uses a lanthanide donor and a delayed reading to cut background.)
In the case of `CN(C)C(=O)CCN(C[C@H](O)[C@@H](O)[C@H](O)[C@H](O)CO)C(=O)CCCCc1cc(Cl)c(COC2(c3cnccc3-c3ccccc3OC3CC3)CC2)cc1Cl` [Compound I-222, 5-[2,5-dichloro-4-({1-[4-(2-cyclopropoxyphenyl)pyridin-3-yl]cyclopropoxy}methyl)phenyl]-N-[2-(dimethylcarbamoyl)ethyl]-N-[(2S,3R,4R,5R)-2,3,4,5,6-pentahydroxyhexyl]pentanamide], the EC50 is < 100 nM.

Turning to `NC(=O)CCN(C[C@H](O)[C@@H](O)[C@H](O)[C@H](O)CO)C(=O)CCCCc1cc(Cl)c(COC2(c3cnccc3-c3ccccc3OC3CC3)CC2)cc1Cl` [Compound I-223, N-(2-carbamoylethyl)-5-[2,5-dichloro-4-({1-[4-(2-cyclopropoxyphenyl)pyridin-3-yl]cyclopropoxy}methyl)phenyl]-N-[(2S,3R,4R,5R)-2,3,4,5,6-pentahydroxyhexyl]pentanamide], the EC50 is < 100 nM.

Consider `Cc1cc(COC2(c3cnccc3-c3ccccc3OC3CC3)CC2)c(C)cc1CCCCC(=O)NC[C@H](O)[C@@H](O)[C@H](O)[C@H](O)CO` [Compound I-229, 5-[4-({1-[4-(2-cyclopropoxyphenyl)pyridin-3-yl]cyclopropoxy}methyl)-2,5-dimethylphenyl]-N-[(2S,3R,4R,5R)-2,3,4,5,6-pentahydroxyhexyl]pentanamide], for which the EC50 is < 100 nM.

`Cc1cc(COC2(c3cnccc3-c3ccccc3OC3CC3)CC2)c(C)cc1CCCCC(=O)N(C)C[C@H](O)[C@@H](O)[C@H](O)[C@H](O)CO` [Compound I-230, 5-[4-({1-[4-(2-cyclopropoxyphenyl)pyridin-3-yl]cyclopropoxy}methyl)-2,5-dimethylphenyl]-N-methyl-N-[(2S,3R,4R,5R)-2,3,4,5,6-pentahydroxyhexyl]pentanamide]: the EC50 is < 100 nM.

As for `Cc1ccc(CCCCNC(=O)NC[C@H](O)[C@@H](O)[C@H](O)[C@H](O)CO)cc1COC1(c2cnccc2-c2ccccc2OC2CC2)CC1` [Compound I-239, 1-{4-[3-({1-[4-(2-cyclopropoxyphenyl)pyridin-3-yl]cyclopropoxy}methyl)-4-methylphenyl]butyl}-3-[(2S,3R,4R,5R)-2,3,4,5,6-pentahydroxyhexyl]urea], the EC50 was 126 to 1000 nM.

As to `Cc1ccc(CCCCNC(=O)NC[C@H](O)[C@@H](O)[C@H](O)[C@H](O)CO)cc1CNC1(c2cnccc2-c2ccccc2OC2CC2)CC1` [Compound I-240, 1-(4-{3-[({1-[4-(2-cyclopropoxyphenyl)pyridin-3-yl]cyclopropyl}amino)methyl]-4-methylphenyl}butyl)-3-[(2S,3R,4R,5R)-2,3,4,5,6-pentahydroxyhexyl]urea], the EC50 was < 100 nM.

On to `CC(CCCCN)c1ccc(Cl)c(CNC2(c3cnccc3-c3ccccc3OC3CC3)CC2)c1` (stereo not shown) [Compound I-242, N-[[5-(6-aminohexan-2-yl)-2-chlorophenyl]methyl]-1-[4-(2-cyclopropoxyphenyl)pyridin-3-yl]cyclopropan-1-amine], for which the EC50 was < 100 nM.

As to `CC(CCCCC(=O)O)c1ccc(Cl)c(CNC2(c3cnccc3-c3ccccc3OC3CC3)CC2)c1` (stereo not shown) [Compound I-249, 6-{4-chloro-3-[({1-[4-(2-cyclopropoxyphenyl)pyridin-3-yl]cyclopropyl}amino)methyl]phenyl}heptanoic acid], the EC50 is < 100 nM.

With `CC(CCCN)c1ccc(Cl)c(CNC2(c3cnccc3-c3ccccc3OC3CC3)CC2)c1` (stereo not shown) [Compound I-252, N-{[5-(5-aminopentan-2-yl)-2-chlorophenyl]methyl}-1-[4-(2-cyclopropoxyphenyl)pyridin-3-yl]cyclopropan-1-amine], the EC50 was 126 to 1000 nM.

With `Cc1ccc(C(C)CCCC(=O)NC[C@H](O)[C@@H](O)[C@H](O)[C@H](O)CO)cc1CNC1(c2cnccc2-c2ccccc2OC2CC2)CC1` (stereo partly drawn) [Compound I-257, 5-[3-[([1-[4-(2-cyclopropoxyphenyl)pyridin-3-yl]cyclopropyl]amino)methyl]-4-methylphenyl]-N-[(2S,3R,4R,5R)-2,3,4,5,6-pentahydroxyhexyl]hexanamide dihydrochloride], the EC50 was < 100 nM.
